Results taken from PubChem BioAssay AID2060614 (Molecular Pharmacology Branch, DTP, NCI, 2025).
“And” between values parts separate entries of the source, which are not always exact repeats. Equal entries are not always repeated.

Test system: 598228-144-R-J1-PDC complex spheroids, viability
Test: Anticancer human tumor 598228-144-R-J1-PDC patient-derived serous endometrial adenocarcinoma cell line growth inhibition [CLK]
Conditions: for viability, T/C: stronger effect = lower value
How it was run: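 Multi-cell-type spheroids combined patient-derived tumor cells with HUVEC endothelial cells and human mesenchymal stem cells. Paired agents were dosed in half-log steps down from about clinical Cmax, or from 10 microM where Cmax was unknown.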

[1] = curve of first compound, second compound 0.0316 µM
[2] = curve of first compound, second compound 0.1 µM
[3] = curve of first compound, second compound 0.316 µM
[4] = curve of first compound, second compound 1 µM
[5] = curve of first compound, second compound 3.16 µM
[6] = curve of first compound, second compound 10 µM
[7] = second compound 0.0316 µM, first compound 0.0316 µM
[8] = second compound 0.0316 µM, first compound 0.1 µM
[9] = second compound 0.0316 µM, first compound 0.316 µM
[10] = second compound 0.0316 µM, first compound 1 µM
[11] = second compound 0.0316 µM, first compound 3.16 µM
[12] = second compound 0.0316 µM, first compound 10 µM
[13] = second compound 0.1 µM, first compound 0.0316 µM
[14] = second compound 0.1 µM, first compound 0.1 µM
[15] = second compound 0.1 µM, first compound 0.316 µM
[16] = second compound 0.1 µM, first compound 1 µM
[17] = second compound 0.1 µM, first compound 3.16 µM
[18] = second compound 0.1 µM, first compound 10 µM
[19] = second compound 0.316 µM, first compound 0.0316 µM
[20] = second compound 0.316 µM, first compound 0.1 µM
[21] = second compound 0.316 µM, first compound 0.316 µM
[22] = second compound 0.316 µM, first compound 1 µM
[23] = second compound 0.316 µM, first compound 3.16 µM
[24] = second compound 0.316 µM, first compound 10 µM
[25] = second compound 1 µM, first compound 0.0316 µM
[26] = second compound 1 µM, first compound 0.1 µM
[27] = second compound 1 µM, first compound 0.316 µM
[28] = second compound 1 µM, first compound 1 µM
[29] = second compound 1 µM, first compound 3.16 µM
[30] = second compound 1 µM, first compound 10 µM
[31] = second compound 3.16 µM, first compound 0.0316 µM
[32] = second compound 3.16 µM, first compound 0.1 µM
[33] = second compound 3.16 µM, first compound 0.316 µM
[34] = second compound 3.16 µM, first compound 1 µM
[35] = second compound 3.16 µM, first compound 3.16 µM
[36] = second compound 3.16 µM, first compound 10 µM
[37] = second compound 10 µM, first compound 0.0316 µM
[38] = second compound 10 µM, first compound 0.1 µM
[39] = second compound 10 µM, first compound 0.316 µM
[40] = second compound 10 µM, first compound 1 µM
[41] = second compound 10 µM, first compound 3.16 µM
[42] = second compound 10 µM, first compound 10 µM
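Further: spheroids exposed to compounds for seven days before readout.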
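Wherever viability, T/C is given: 100% = DMSO vehicle control wells.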

## COc1cccc2c1C(=O)c1c(O)c3c(c(O)c1C2=O)CC(O)(C(=O)CO)CC3OC1CC(N)C(O)C(C)O1 (configuration not stated) + CN1CCN(c2cc(C(=O)Nc3cc4cc(-c5cnn(C)c5)ccc4cn3)ccn2)CC1
[1]
  IC50: 263 nM
[2]
  IC50: 224 nM
[3]
  IC50: < 31.6 nM
[4]
  IC50: < 31.6 nM
[5]
  IC50: < 31.6 nM
[6]
  IC50: < 31.6 nM
[7]
  viability, T/C: 114%
[8]
  viability, T/C: 116%
[9]
  viability, T/C: 37.5%
[10]
  viability, T/C: 7.36%
[11]
  viability, T/C: 0.34%
[12]
  viability, T/C: 0.49%
[13]
  viability, T/C: 150%
[14]
  viability, T/C: 109%
[15]
  viability, T/C: 24.6%
[16]
  viability, T/C: 3.45%
[17]
  viability, T/C: 0.34%
[18]
  viability, T/C: 1.62%
[19]
  viability, T/C: 14.6%
[20]
  viability, T/C: 14.6%
[21]
  viability, T/C: 3.54%
[22]
  viability, T/C: 0.66%
[23]
  viability, T/C: 0.34%
[24]
  viability, T/C: 2.75%
[25]
  viability, T/C: 1.14%
[26]
  viability, T/C: 0.59%
[27]
  viability, T/C: 1%
[28]
  viability, T/C: 0.68%
[29]
  viability, T/C: 0.96%
[30]
  viability, T/C: 2.88%
[31]
  viability, T/C: 1.47%
[32]
  viability, T/C: 3.06%
[33]
  viability, T/C: 0.97%
[34]
  viability, T/C: 0.79%
[35]
  viability, T/C: 1.31%
[36]
  viability, T/C: 4.32%
[37]
  viability, T/C: 0.73%
[38]
  viability, T/C: 0.59%
[39]
  viability, T/C: 3.86%
[40]
  viability, T/C: 0.35%
[41]
  viability, T/C: 0.23%
[42]
  viability, T/C: 3.87%

## NC(=O)C(=Cn1cnc(-c2cc(C(F)(F)F)cc(C(F)(F)F)c2)n1)c1cncnc1
Compound 0.00949 µM
  viability, T/C: 89% and 103%
Compound 0.03 µM
  viability, T/C: 80.9% and 101%
Compound 0.0949 µM
  viability, T/C: 52.1% and 86.2%
Compound 0.3 µM
  viability, T/C: 32% and 38.9%
Compound 0.949 µM
  viability, T/C: 15% and 30.6%
Compound 3 µM
  viability, T/C: 18.1% and 21.5%
Curve of compound
  IC50: 114 nM and 232 nM

## C=C(F)C(=O)N1CCN(c2nc(OCC3CCCN3C)nc3c2CCN(c2cccc4cccc(Cl)c24)C3)CC1CC#N (configuration not stated)
Compound 0.0316 µM
  viability, T/C: 91% and 112%
Compound 0.1 µM
  viability, T/C: 107% and 89.4%
Compound 0.316 µM
  viability, T/C: 97.2% and 105%
Compound 1 µM
  viability, T/C: 109% and 103%
Compound 3.16 µM
  viability, T/C: 66.6% and 68.1%
Compound 10 µM
  viability, T/C: 0.83% and 0.61%
Curve of compound
  IC50: 4230 nM and 4300 nM

## C=CC(=O)N1CCN(c2nc(=O)n(-c3c(C)ccnc3C(C)C)c3nc(-c4c(O)cccc4F)c(F)cc23)C(C)C1 (configuration not stated) + CNC(=O)c1ccc(Nc2nc(OC3CCCC3)c3c(-c4ccc5nc(C)oc5c4)c[nH]c3n2)c(OC)c1
[1]
  IC50: > 10000 nM
[2]
  IC50: > 10000 nM
[3]
  IC50: > 10000 nM
[4]
  IC50: > 10000 nM
[5]
  IC50: > 10000 nM
[6]
  IC50: > 10000 nM
[7]
  viability, T/C: 97.9%
[8]
  viability, T/C: 110%
[9]
  viability, T/C: 101%
[10]
  viability, T/C: 123%
[11]
  viability, T/C: 135%
[12]
  viability, T/C: 111%
[13]
  viability, T/C: 100%
[14]
  viability, T/C: 111%
[15]
  viability, T/C: 117%
[16]
  viability, T/C: 114%
[17]
  viability, T/C: 127%
[18]
  viability, T/C: 118%
[19]
  viability, T/C: 120%
[20]
  viability, T/C: 100%
[21]
  viability, T/C: 110%
[22]
  viability, T/C: 127%
[23]
  viability, T/C: 120%
[24]
  viability, T/C: 111%
[25]
  viability, T/C: 102%
[26]
  viability, T/C: 96.7%
[27]
  viability, T/C: 109%
[28]
  viability, T/C: 137%
[29]
  viability, T/C: 117%
[30]
  viability, T/C: 99.3%
[31]
  viability, T/C: 99.8%
[32]
  viability, T/C: 86.1%
[33]
  viability, T/C: 97.5%
[34]
  viability, T/C: 109%
[35]
  viability, T/C: 116%
[36]
  viability, T/C: 85.3%
[37]
  viability, T/C: 87.6%
[38]
  viability, T/C: 88.7%
[39]
  viability, T/C: 96.4%
[40]
  viability, T/C: 104%
[41]
  viability, T/C: 101%
[42]
  viability, T/C: 77.3%

## CC(Nc1ccc2c(c1)OCCn1cc(N3C(=O)OCC3C(F)F)nc1-2)C(N)=O (configuration not stated) + CN1CCN(c2cc(C(=O)Nc3cc4cc(-c5cnn(C)c5)ccc4cn3)ccn2)CC1
[1]
  IC50: 885 nM
[2]
  IC50: 271 nM
[3]
  IC50: < 31.6 nM
[4]
  IC50: < 31.6 nM
[5]
  IC50: < 31.6 nM
[6]
  IC50: < 31.6 nM
[7]
  viability, T/C: 97.7%
[8]
  viability, T/C: 66.2%
[9]
  viability, T/C: 67%
[10]
  viability, T/C: 47.1%
[11]
  viability, T/C: 40.3%
[12]
  viability, T/C: 24.4%
[13]
  viability, T/C: 87.9%
[14]
  viability, T/C: 64.3%
[15]
  viability, T/C: 44.9%
[16]
  viability, T/C: 38.6%
[17]
  viability, T/C: 26.5%
[18]
  viability, T/C: 18.3%
[19]
  viability, T/C: 12.3%
[20]
  viability, T/C: 9.13%
[21]
  viability, T/C: 10.7%
[22]
  viability, T/C: 6.85%
[23]
  viability, T/C: 4.58%
[24]
  viability, T/C: 7.75%
[25]
  viability, T/C: 1.13%
[26]
  viability, T/C: 0.87%
[27]
  viability, T/C: 2.39%
[28]
  viability, T/C: 0.6%
[29]
  viability, T/C: 0.73%
[30]
  viability, T/C: 0.42%
[31]
  viability, T/C: 1.56%
[32]
  viability, T/C: 1.01%
[33]
  viability, T/C: 0.62%
[34]
  viability, T/C: 0.69%
[35]
  viability, T/C: 1.66%
[36]
  viability, T/C: 1.62%
[37]
  viability, T/C: 0.62%
[38]
  viability, T/C: 0.46%
[39]
  viability, T/C: 1.49%
[40]
  viability, T/C: 0.44%
[41]
  viability, T/C: 4.05%
[42]
  viability, T/C: 2.58%

## CCCS(=O)(=O)Nc1ccc(F)c(C(=O)c2c[nH]c3ncc(-c4ccc(Cl)cc4)cc23)c1F
Compound 0.0316 µM
  viability, T/C: 95.3% and 98.7%
Compound 0.1 µM
  viability, T/C: 119% and 92.2%
Compound 0.316 µM
  viability, T/C: 92.5% and 90.5%
Compound 1 µM
  viability, T/C: 106% and 90.1%
Compound 3.16 µM
  viability, T/C: 89.6% and 81.8%
Compound 10 µM
  viability, T/C: 55.9% and 44.1%
Curve of compound
  IC50: > 10000 nM and 8390 nM
